What was measured:
Type in all cases: biochemical
PEPC (wheat germ) = test: Separate enzyme assay of PEPC in the presence of varying amounts of oxamate; settings: for PEPC % Activity: average of three replicates
LDH = test: Inhibition of reaction III (oxidation of NADH by pyruvate, catalysed by serum LDH) by oxamate; settings: for NADH oxidized: 10 minutes, 340 nm, 37°C
Procedure: Using the same materials and methodology of the end-point determination described in Example III, the effectiveness of oxamate as an inhibitor of reaction III was determined. First, reaction III was followed by […] of oxamate to serum.with normal and supranormal LDH activities up to 2000 U/1 (one U/1 is an enzyme activity unit which catalyzes the transformation of one micromole per liter of pyruvate per minute at 37°C). In order to magnify the spectrophotometric signal, the sample volume was increased from 7.5 microliters to 50 microliters. The oxidation of NADH was followed for 10 minutes at 340 nm and 37°C, and the concentration of NADH oxidized was calculated from the change in absorbance over the 10 minute period.

MDH (porcine heart) = target: T1, MDH (porcine heart) (Sus scrofa, UniProt P00346); test: Separate enzyme assay of MDH in the presence of varying amounts of oxamate
T1 construct: purchased Boehringer Mannheim Corporation, Indianapolis, Indiana
T1 sequence (P00346 25-338): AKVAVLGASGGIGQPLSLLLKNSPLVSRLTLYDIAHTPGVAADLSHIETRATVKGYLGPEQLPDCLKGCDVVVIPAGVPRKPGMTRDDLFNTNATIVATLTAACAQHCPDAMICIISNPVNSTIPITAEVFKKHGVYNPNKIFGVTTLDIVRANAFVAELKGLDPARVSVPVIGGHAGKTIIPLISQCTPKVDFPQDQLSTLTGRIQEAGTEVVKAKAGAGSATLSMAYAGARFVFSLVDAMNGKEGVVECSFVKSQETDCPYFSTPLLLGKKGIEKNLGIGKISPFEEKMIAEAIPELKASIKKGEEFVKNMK

[1] = concentrations of oxamate up to 40 mmol/l

NC(=O)C(=O)[O-].[Na+] [oxamate, sodium oxamate]
PEPC % Activity (PEPC (wheat germ); Oxamate 5 mmol/l): 102 ± 2% | PEPC % Activity (PEPC (wheat germ); Oxamate 10 mmol/l): 95 ± 11% | PEPC % Activity (PEPC (wheat germ); Oxamate 20 mmol/l): 103 ± 1% | PEPC % Activity (PEPC (wheat germ); Oxamate 40 mmol/l): 99 ± 2% | PEPC % Activity (PEPC (wheat germ); Oxamate 80 mmol/l): 86 ± 4% | effect on PEPC (PEPC (wheat germ); [1]): no effect | effect on PEPC (PEPC (wheat germ); varying amounts of oxamate): no significant effect | NADH oxidized (LDH; 2.5 mmol/l oxamate, serum LDH 282 U/l, 2 mmol/l pyruvate added): 0 µmol/L | NADH oxidized (LDH; 2.5 mmol/l oxamate, serum LDH 334 U/l, 2 mmol/l pyruvate added): 1.3 µmol/L | NADH oxidized (LDH; 2.5 mmol/l oxamate, serum LDH 340 U/l, 2 mmol/l pyruvate added): 1.3 µmol/L | NADH oxidized (LDH; 2.5 mmol/l oxamate, serum LDH 402 U/l, 2 mmol/l pyruvate added): 0 µmol/L | NADH oxidized (LDH; 2.5 mmol/l oxamate, serum LDH 508 U/l, 2 mmol/l pyruvate added): 3.5 µmol/L | NADH oxidized (LDH; 2.5 mmol/l oxamate, serum LDH 600 U/l, 2 mmol/l pyruvate added): 2.6 µmol/L | NADH oxidized (LDH; 2.5 mmol/l oxamate, serum LDH 1200 U/l, 2 mmol/l pyruvate added): 7.7 µmol/L | NADH oxidized (LDH; 2.5 mmol/l oxamate, serum LDH 1470 U/l, sample not spiked with pyruvate): 1.0 µmol/L | NADH oxidized (LDH; 2.5 mmol/l oxamate, serum LDH normal (average of 10 normal sera), 2 mmol/l pyruvate added): 1.4 µmol/L | NADH oxidized (LDH; 5 mmol/l oxamate, serum LDH 282 U/l, 2 mmol/l pyruvate added): 0 µmol/L | NADH oxidized (LDH; 5 mmol/l oxamate, serum LDH 334 U/l, 2 mmol/l pyruvate added): 0.3 µmol/L | NADH oxidized (LDH; 5 mmol/l oxamate, serum LDH 340 U/l, 2 mmol/l pyruvate added): 0 µmol/L | NADH oxidized (LDH; 5 mmol/l oxamate, serum LDH 402 U/l, 2 mmol/l pyruvate added): 0 µmol/L | NADH oxidized (LDH; 5 mmol/l oxamate, serum LDH 508 U/l, 2 mmol/l pyruvate added): 0.3 µmol/L | NADH oxidized (LDH; 5 mmol/l oxamate, serum LDH 600 U/l, 2 mmol/l pyruvate added): 0.2 µmol/L | NADH oxidized (LDH; 5 mmol/l oxamate, serum LDH 1200 U/l, 2 mmol/l pyruvate added): 0.9 µmol/L | NADH oxidized (LDH; 5 mmol/l oxamate, serum LDH 1470 U/l, sample not spiked with pyruvate): 0 µmol/L | NADH oxidized (LDH; 5 mmol/l oxamate, serum LDH normal (average of 10 normal sera), 2 mmol/l pyruvate added): 0.5 µmol/L | NADH oxidized (LDH; 10 mmol/l oxamate, serum LDH 282 U/l, 2 mmol/l pyruvate added): 0 µmol/L | NADH oxidized (LDH; 10 mmol/l oxamate, serum LDH 334 U/l, 2 mmol/l pyruvate added): 0 µmol/L | NADH oxidized (LDH; 10 mmol/l oxamate, serum LDH 340 U/l, 2 mmol/l pyruvate added): 0 µmol/L | NADH oxidized (LDH; 10 mmol/l oxamate, serum LDH 402 U/l, 2 mmol/l pyruvate added): 0 µmol/L | NADH oxidized (LDH; 10 mmol/l oxamate, serum LDH 508 U/l, 2 mmol/l pyruvate added): 0.1 µmol/L | NADH oxidized (LDH; 10 mmol/l oxamate, serum LDH 600 U/l, 2 mmol/l pyruvate added): 0 µmol/L | NADH oxidized (LDH; 10 mmol/l oxamate, serum LDH 1200 U/l, 2 mmol/l pyruvate added): 0.3 µmol/L | NADH oxidized (LDH; 10 mmol/l oxamate, serum LDH 1470 U/l, sample not spiked with pyruvate): 0 µmol/L | NADH oxidized (LDH; 10 mmol/l oxamate, serum LDH 2000 U/l, 2 mmol/l pyruvate added): 0 µmol/L | NADH oxidized (LDH; 10 mmol/l oxamate, serum LDH normal (average of 10 normal sera), 2 mmol/l pyruvate added): 0.3 µmol/L | NADH oxidized (LDH; 20 mmol/l oxamate, serum LDH 282 U/l, 2 mmol/l pyruvate added): 0 µmol/L | NADH oxidized (LDH; 20 mmol/l oxamate, serum LDH 334 U/l, 2 mmol/l pyruvate added): 0 µmol/L | NADH oxidized (LDH; 20 mmol/l oxamate, serum LDH 340 U/l, 2 mmol/l pyruvate added): 0 µmol/L | NADH oxidized (LDH; 20 mmol/l oxamate, serum LDH 402 U/l, 2 mmol/l pyruvate added): 0 µmol/L | NADH oxidized (LDH; 20 mmol/l oxamate, serum LDH 508 U/l, 2 mmol/l pyruvate added): 0 µmol/L | NADH oxidized (LDH; 20 mmol/l oxamate, serum LDH 600 U/l, 2 mmol/l pyruvate added): 0 µmol/L | NADH oxidized (LDH; 20 mmol/l oxamate, serum LDH 1200 U/l, 2 mmol/l pyruvate added): 0 µmol/L | NADH oxidized (LDH; 20 mmol/l oxamate, serum LDH 1470 U/l, sample not spiked with pyruvate): 0 µmol/L | NADH oxidized (LDH; 20 mmol/l oxamate, serum LDH 2000 U/l, 2 mmol/l pyruvate added): 0 µmol/L | NADH oxidized (LDH; 20 mmol/l oxamate, serum LDH normal (average of 10 normal sera), 2 mmol/l pyruvate added): 0 µmol/L | LDH activity (LDH; oxamate concentration of 10-20 mmol/l): completely inhibited | activity at 5000 µM (MDH (porcine heart); Oxamate 5 mmol/l, average of three replicates): 102 ± 2% | activity at 10000 µM (MDH (porcine heart); Oxamate 10 mmol/l, average of three replicates): 102 ± 2% | activity at 20000 µM (MDH (porcine heart); Oxamate 20 mmol/l, average of three replicates): 99 ± 1% | activity at 40000 µM (MDH (porcine heart); Oxamate 40 mmol/l, average of three replicates): 98 ± 5% | activity at 80000 µM (MDH (porcine heart); Oxamate 80 mmol/l, average of three replicates): 92 ± 2% | effect on MDH (MDH (porcine heart); [1]): no effect | effect on MDH (MDH (porcine heart); varying amounts of oxamate): no significant effect
